Test results from patent EP2636410A1, “Utilization of the dichlorido complexes of platinum with 7-azaindole halogeno-derivatives for the preparation of drugs for the treatment of tumour diseases” (Univerzita Palackeho, priority 2012, dated 2013).

Assays:
Test in all cases: In vitro cytotoxicity, MTT micro-titration analysis
Type in all cases: cell-based
[1] = tested on: human cancer cell line of cervix carcinoma HeLa; conditions: HeLa cells, 24 h incubation with complex, read-out: inhibition concentrations IC50
Procedure: (§1) The cytotoxic activities of the prepared complexes, as it is given below in the examples 1-6, were tested by micro-titration analysis using 3-(4,5-dimethylthiazol-2-yl)-2,5-diphenyltetrazolium bromide (MTT). The test detected living cells, whose number corresponds to the reduced MTT quantity. In vitro cytotoxicity was tested against the following human cancer cells: lung carcinoma A549, malignant melanoma G361, cervix carcinoma HeLa, ovarian carcinoma A2780, cisplatin-resistant ovarian carcinoma A2780R and prostate carcinoma LNCaP. The cells were maintained in plastic tissue culture flasks in the DMEM medium (5 g/L of glucose, 2 mM of glutamine, 100 U/mL of penicillin, 100 µg/mL of streptomycine, 10% fetal calf serum and sodium hydrogen carbonate) for cell cultures. The cell suspensions (ca 1.25 x 10^5 cells mL^-1) were pipetted (80 µL) into 96-well microplates. They were incubated at 37 °C in the CO2 atmosphere for 24 h. The tested dichlorido complexes of platinum were dissolved in N,N'-dimethylformamide (DMF) and diluted to the 50.0 mM concentration - these solutions represent the stock solutions. […]
(§2) The in vitro antitumor activity of the studied complexes cis-[PtCl2(L2)2] […] (3) against human cancer cell line of cervix carcinoma HeLa was determined by the above-described micro-titration analysis using MTT (L2 = 3-chloro-7-azaindole, L3 = 3-iodo-7-azaindole, L6 = 5-bromo-7-azaindole).

[2] = tested on: human cancer cell line of malignant melanoma G361; conditions: G361 cells, 24 h incubation with complex, read-out: inhibition concentrations IC50
Procedure: as §1
The in vitro antitumor activity of the studied complexes cis-[PtCl2(L2)2] […] (3) against human cancer cell line of malignant melanoma G361 was determined by the above-described micro-titration analysis using MTT (L2 = 3-chloro-7-azaindole, L3 = 3-iodo-7-azaindole, L6 = 5-bromo-7-azaindole).

[3] = tested on: human cancer cell line of cisplatin-resistant ovarian carcinoma A2780R; conditions: A2780R cells, 24 h incubation with complex, read-out: inhibition concentrations IC50
Procedure: as §1, with “h.” for “h. The tested dichlorido complexes of platinum were dissolved in N,N'-dimethylformamide (DMF) and diluted to the 50.0 mM concentration - these solutions represent the stock solutions.”
as §2, with “cisplatin-resistant ovarian” for “cervix”, “A2780R” for “HeLa”

[4] = tested on: human cancer cell line of prostate carcinoma LNCaP; conditions: LNCaP cells, 24 h incubation with complex, read-out: inhibition concentrations IC50
Procedure: as §1
The in vitro antitumor activity of the studied complexes cis-[PtCl2(L2)2] […] (3) against human cancer cell line of prostate carcinoma LNCaP was determined by the above-described micro-titration analysis using MTT (L2 = 3-chloro-7-azaindole, L3 = 3-iodo-7-azaindole, L6 = 5-bromo-7-azaindole).

[5] = tested on: human cancer cell line of ovarian carcinoma A2780; conditions: A2780 cells, 24 h incubation with complex, read-out: inhibition concentrations IC50
Procedure: as §1
The in vitro antitumor activity of the studied complexes cis-[PtCl2(L2)2] […] (3) against human cancer cell line of ovarian carcinoma A2780 was determined by the above-described micro-titration analysis using MTT (L2 = 3-chloro-7-azaindole, L3 = 3-iodo-7-azaindole, L6 = 5-bromo-7-azaindole).

[6] = tested on: human cancer cell line of lung carcinoma A549; conditions: A549 cells, 24 h incubation with complex, read-out: inhibition concentrations IC50
Procedure: as §1
The in vitro antitumor activity of the studied complexes cis-[PtCl2(L2)2] […] (3) against human cancer cell line of lung carcinoma A549 was determined by the above-described micro-titration analysis using MTT (L2= 3-chloro-7-azaindole, L3 = 3-iodo-7-azaindole, L6 = 5-bromo-7-azaindole).

**Q.** With `N.N.[Cl][Pt][Cl]` [cisplatin, Cis-diammine-dichloridoplatinum(II) complex, reference compound] as the molecule, how does the IC50 [1] read?
**A.** The IC50 was 10 ± 2.6 µM.

**Q.** And the IC50 [2]?
**A.** The IC50 was 3.4 ± 0.1 µM.

**Q.** And the IC50 [3]?
**A.** Its IC50 is 27 ± 4.6 µM.

**Q.** And the IC50 [4]?
**A.** The IC50 was 3.8 ± 1.5 µM.

**Q.** And the IC50 [5]?
**A.** The IC50 was 12 ± 0.8 µM.

**Q.** What about the IC50 [6] of the same molecule?
**A.** The IC50 was 25.8 ± 7.1 µM.
